Experimental data published in patent publication US7795314B2, “Protective role of semapimod in necrotizing enterocolitis” (Cytokine PharmaSciences, Inc., priority 2005, dated 2010).

Assays:
[1] = system: Bad; assay: Western blotting of ileal mucosal scrapings, NEC model; assay type: in vivo, rat; conditions: FFH pups, 0.75 mg/kg IP daily, day 4, FIG. 4a
Protocol: (§1) All the experiments were carried out according to an animal protocol approved by the Animal Research and Care Committee (ARCC) of the Children's Hospital of Pittsburgh. Pregnant time-dated Sprague-Dawley rats (Charles River Labs, Wilmington, Mass.) were induced at term using a subcutaneous injection (1 to 2 U per animal) of Pitocin® (Monarch Pharmaceuticals, Bristol, Tenn.). Immediately after birth, the neonates were weighed and randomized into one of the different treatment groups. Group 1 consisted of neonatal rats left with their mother, and thus were breast-fed. […]
(§2) Newborn rats were sacrificed as indicated and segments of the terminal ileum were isolated. […] Protein concentration in the supernatant was determined using the bicinchoninic acid (BCA) Protein Assay kit form Sigma (St. Louis, Mo.) with bovine serum albumin as standard. […]

[2] = system: Bax; assay: as above; assay type: in vivo, rat; conditions: FFH pups, 0.75 mg/kg IP daily, day 4, FIG. 4b
Protocol: as §1, §2

[3] = system: COX-2; assay: as above; assay type: in vivo, rat; conditions: FFH animals, 0.75 mg/kg IP daily, day 4, FIG. 5b
Protocol: as §1, §2

[4] = system: iNOS; assay: as above; assay type: in vivo, rat; conditions: FFH animals, 0.75 mg/kg IP daily, day 4, FIG. 5a
Protocol: as §1, §2

[5] = system: p38 MAP kinase; assay: Activation (phosphorylation) of p38 MAP kinase in IEC-6 cells, Western blotting pp38/p38; assay type: cell-based, rat
Protocol: The rat intestinal crypt cell line IEC-6 was purchased from the American Type Culture Collection (ATCC, Manassas, Va.). Cells were grown in tissue culture medium consisting of Dulbeco's modified Eagle's medium with 4.5 gm/L glucose (Bio-Whittaker, Walkersville, Md.) supplemented with 5% fetal bovine serum (Bio-Whittaker), 0.02 mM glutamine (GIBCO; Grand Island, N.Y.), 0.1 U/ml insulin, 100 U/ml penicillin, and 100 μg/ml streptomycin (GIBCO) at 37° C. and 10% CO2. Cells were pretreated with semapimod (0.1-10 μM solutions prepared in 5% dextrose) followed by short exposure to LPS (5 μg/ml), peroxynitrite (ONOO^−, 50 μM) or cytomix (a combination of tumor necrosis factor (TNFα, 10 ng/ml), interleukin-1β (IL-β, 1 ng/ml), and interferon-gamma (IFNγ, 1000 U/ml) for 10 min. Preparation of the ONOO^− solution and cell treatment was as previously reported (36). The lysates were collected for Western blotting analysis as follows: proteins were extracted for 10 min at 4° C. witih lysis buffer (20 mM Tris pH 8.0, 150 mM NaCl, 1% NP-40, 0.5% sodium deoxycholate, 0.1% sodium dodecylsulfate) supplemented with protease and phosphatase inhibitors: 1 mM PMSF, 1 mM benzamidine, 50 μg/ml aprotinin, 0.5 mM Na3VO4, 20 mM NaF, and 0.5 mM phenylarsine oxide. Aliquots containing 50 μg total protein were resolved by SDS-polyacrylamide gel electrophoresis. Gels were electroblotted onto nitrocellulose membranes. Following 1 hr incubation in blocking solution (phosphate-buffered saline, 0.1% Tween-20, 2% fish gelatin, pH 7.5), membranes were incubated with primary (phospho-p38 and p38) and secondary horseradish peroxidase-conjugated antibodies as recommended by manufacturers. Membranes were then impregnated with luminol reagent and exposed to x-ray film.
(a) Rat intestinal epithelial cells (IEC-6) were pretreated with different doses of the drug (0.1-10 μM) for 1 hr. prior to stimulation with 5 μg/ml LPS for 10 min or (b) were pretreated with semapimod (5 μM) for 1 hr. prior to stimulation with 5 μg/ml LPS or ONOO^− (50 μM) for 10 min. The protein lysates were then collected and Western blotting analysis for phospho-p38 and p38 (loading control) was performed as described in Methods. (a) A representative blot for pp38/p38 and densitometric analysis showing the ratio of pp38/p38 band intensity. Ctrl are non-stimulated cells. Results in graph bars are the mean±S.E.M. (n=3 independent experiments, *P<0.05 vs. LPS treated cells without pretreatment with semapimod, analyzed by one-way ANOVA followed by Fisher's LSD Test).
The present inventors have previously shown that LPS causes rapid but transient activation of p38 MAP kinase as determined by increased phosphorylation of p38. […] The effect of semapimod on p38 activation by inflammatory mediators other than LPS was evaluated.

[6] = system: endotoxin-induced TNF release and shock; conditions: adult male Lewis rats, icv. vs intravenous; cited from earlier work
[7] = system: formula-feeding/hypoxia-mediated intestinal injury (experimental NEC); assay: Animal model of NEC: incidence of NEC and morphologic evaluation of terminal ileum; assay type: in vivo, Sprague-Dawley rats (newborn); conditions: FFH newborn rats
Protocol: as §1
Newborn rats separated from their mothers were fed a conventional formula and exposed to hypoxia after administration of the drug semapimod (0.1-1 mg/kg, i.p.) as described in Methods. […] Incidence of NEC was calculated as the percentage of animals displaying pathology scores higher than 0 as assessed by histology. Results in graph bars are the mean±S.E.M. (n=15-45 animals for each group, *P<0.05 vs. FFH without semapimod, analyzed by one-way ANOVA followed by Fisher's LSD Test).

[8] = system: RAGE; assay: Western blotting of ileal mucosal scrapings, NEC model; assay type: in vivo, rat; conditions: FFH+semapimod vs FFH, day 4, 45 and 25 kDa bands, FIG. 3c
Protocol: as §1, §2

[9] = system: HMGB1; assay: as above; assay type: in vivo, rat; conditions: FFH+semapimod vs FFH, day 4, 30 kDa band, FIG. 3a
Protocol: as §1, §2

[10] = 0.1-10 μM pretreatment 1 hr, then 5 μg/ml LPS 10 min, FIG. 6a

SMILES: C/C(=N\NC(=N)N)c1cc(NC(=O)CCCCCCCCC(=O)Nc2cc(/C(C)=N/NC(=N)N)cc(/C(C)=N/NC(=N)N)c2)cc(/C(C)=N/NC(=N)N)c1 [semapimod]
- expression of Bad protein in mucosal scrapings [1]: significantly decreased
- expression of Bax protein in mucosal scrapings [2]: significantly decreased
- expression of COX-2 protein in terminal ileum [3]: significantly decreased
- expression of iNOS protein in terminal ileum [4]: significantly decreased
- phosphorylation of p38 induced by ONOO− ([5]; 5 μM semapimod pretreatment 1 hr, ONOO− 50 μM 10 min, FIG. 6b): not inhibited
- concentrations with maximal effect on LPS-induced phosphorylation of p38 [5, 10]: higher than 1 μM
- phosphorylation of p38 induced by LPS [5, 10]: dose dependently inhibited
- p38 activation by a mixture of TNFα, IL-1β and IFN-γ ([5]; semapimod pretreatment, cytomix 10 min (not shown)): failed to inhibit
- effectiveness of icv. administration in suppressing endotoxin-induced TNF release and shock as compared with intravenous [6]: 100,000 fold
- severity of intestinal injury / morphology as assessed by histology ([7]; 0.75 mg/kg i.p., day 4, FIG. 3b, 0.75 mg/kg): decrease in the severity of injury
- doses that prevented intestinal damage (reduction in the incidence of NEC) ([7]; semapimod 0.1-1 mg/kg i.p. daily, terminal ileum day 4, FIG. 2): higher than 0.5 mg/kg
- expression of RAGE in ileal mucosal scrapings [8]: expression of RAGE was reduced
- HMGB1 protein expression in ileal mucosa [9]: reduced after administration of semapimod
